{"source": "patent US12102642B2", "about": "“Treatment of hypercoagulopathy in Cushing's syndrome by administration of glucocorticoid receptor modulators” (Corcept Therapeutics Incorporated, priority 2018, dated 2024)", "key": {"[1]": {"system": "Cushing's syndrome patients", "conditions": "see U.S. Patent Application 62/783,015; cited from earlier work"}, "[2]": {"system": "Cushing's syndrome patients", "test": "Clinical study of relacorilant in Cushing's syndrome patients (coagulation factors, inflammation markers, comorbidities)", "assay_type": "in vivo, human", "source_text": "In TABLE 1 above, the P-value is a Wilcoxon Signed Rank P-value; mean change from baseline indicates the mean change from the initial (baseline) values to the last-observed values; Factor VIII values are reported as percent of normal values; platelet counts and eosinophil counts are reported as numbers of cells per liter; APTT indicates activated partial thromboplastin time, measured in seconds; and serum osteocalcin measures levels of the vitamin K-related hormone osteocalcin outside of bone. […] Relacorilant was administered to the patients once per day for four months. Two groups of Cushing's syndrome patients received relacorilant. Group 1 received 100 milligrams per day (mg/day) which, if tolerated, was raised to 200 mg/day for the 16 weeks of the study. Group 2 received relacorilant doses according to the following schedule: the starting doses were 250 milligrams (mg) per day of relacorilant for four weeks, followed by 300 mg/day relacorilant for the next four weeks, followed by 350 mg/day relacorilant for a further four weeks, and then 400 mg relacorilant for another four weeks. […] Factor VIII and von Willebrand Factor at baseline, prior to relacorilant administration (left-most pair of columns); after four weeks of relacorilant treatment (middle pair of columns); and after 3 or 4 months of relacorilant treatment (right-most pair of columns). Factor VIII levels are reduced, as compared to baseline, at week four and after 3 or 4 months of relacorilant treatment. […] The APTT of Group 2 patients receiving relacorilant was measured at baseline (before relacorilant administration) and after 16 weeks (or following the last relacorilant administration for those patients who […] the full 16 weeks of relacorilant administration). […] Increased APTT indicates an increase in the time for blood coagulation; that is, a reduction in hypercoagulation."}, "[3]": {"conditions": "baseline to last-observed values, cells per liter"}, "[4]": {"conditions": "generally observed within two weeks of achieving a therapeutic dose"}}, "note": "Entries after “also recorded” stand apart in the source; their conditions may differ."}
{"smiles": "Cn1cc(S(=O)(=O)N2CCC3=Cc4c(cnn4-c4ccc(F)cc4)C[C@]3(C(=O)c3cc(C(F)(F)F)ccn3)C2)cn1", "note": "[relacorilant, (R)-(1-(4-fluorophenyl)-6-((1-methyl-1H-pyrazol-4-yl)sulfonyl)-4,4a,5,6,7,8-hexahydro-1H-pyrazolo[3,4-g]isoquinolin-4a-yl)(4-(trifluoromethyl)pyridin-2-yl)methanone]", "values": [{"measurement": "Effect on cortisol", "setting": "[1]", "result": "not raising cortisol"}, {"measurement": "Risk of hypokalemia", "setting": "[1]", "result": "not increasing the risk of hypokalemia"}, {"measurement": "Coagulation profile (coagulation factors, thrombin-antithrombin) compared to baseline", "setting": "[2]; FIG. 2B", "result": "improved compared to baseline"}, {"measurement": "APTT compared to baseline", "setting": "[2]; Group 2 patients (250 to 400 mg/day), 12 patients, after 16 weeks or last administration (FIG. 2A), p-value 0.014", "result": "increased significantly"}, {"measurement": "Von Willebrand factor levels compared to baseline", "setting": "[2]; after 3 or 4 months of relacorilant treatment (FIG. 1A)", "result": "return to baseline levels"}, {"measurement": "C-Reactive protein levels compared to baseline", "setting": "[2]; after 3 or 4 months of relacorilant treatment (FIG. 3)", "result": "return to baseline levels"}, {"measurement": "Factor VIII levels compared to baseline", "setting": "[2]; after 3 or 4 months of relacorilant treatment, end of study (FIG. 1A)", "result": "reduced; also recorded: normalized"}, {"measurement": "Abnormally elevated coagulation factors caused by excess cortisol activity", "setting": "[2]; as early as after one month of treatment", "result": "Improvement/normalization"}, {"measurement": "Von Willebrand factor levels compared to baseline", "setting": "[2]; at four weeks of relacorilant treatment (FIG. 1A)", "result": "initially rise somewhat"}, {"measurement": "C-Reactive protein levels compared to baseline", "setting": "[2]; at four weeks of relacorilant treatment (FIG. 3)", "result": "initially rise somewhat"}, {"measurement": "Serum Osteocalcin, Mean Change from Baseline", "setting": "[2]; baseline to last-observed values", "result": 3.00, "unit": "µg/L"}, {"measurement": "Coagulopathy (APTT), Mean Change from Baseline", "setting": "[2]; baseline to last-observed values, activated partial thromboplastin time", "result": "+1.45 Seconds"}, {"measurement": "Coagulopathy (Platelets), Mean Change from Baseline", "setting": "[2]; [3]", "result": "−68.82 10^9/L"}, {"measurement": "Inflammation (eosinophils), Mean Change from Baseline", "setting": "[2]; [3]", "result": "0.05 10^9/L"}, {"measurement": "Coagulopathy (Factor VIII), Mean Change from Baseline", "setting": "[2]; baseline to last-observed values, percent of normal values, Cushing's syndrome patients, relacorilant once per day", "result": "−18.94", "unit": "%"}, {"measurement": "Thromboembolic events", "setting": "[2]; clinical study of 35 Cushing's syndrome patients treated with relacorilant", "result": "No thromboembolic events were observed"}, {"measurement": "Hyperglycemia", "setting": "[2]; [4]", "result": "improvement"}, {"measurement": "Hypertension", "setting": "[2]; [4]", "result": "improvement"}, {"measurement": "Factor VIII levels compared to baseline", "setting": "[2]; week four of relacorilant treatment (FIG. 1A)", "result": "reduced"}]}
